# Measurements taken from PMC7343696 (EJNMMI Research, 2020).
# “Also recorded” adds a separate entry of the source. Counter-ions that a name gives are not always drawn. Like-named read-outs stand apart in the source and are kept apart here. Marks after values point to notes of the source that are not given here.
# Legend:
# [1] = tested on: SK-N-SH neuroblastoma xenografts; experiment: [125I]MIBG tumor uptake in mice bearing SK-N-SH neuroblastoma xenografts; assay type: in vivo, BALB/c nu/nu mice; conditions: for Effect on [125I]MIBG accumulation in neuroblastoma xenografts (in words): inhibitor IP 30 min before [125I]MIBG, tissues 1 h after, doses as in Fig. 6
# Method: (§1) Female athymic BALB/c nu/nu mice were bred in the animal facility of the Netherlands Cancer Institute. Experiments were performed in accordance with the national regulations for animal experimentations and approved by the local animal welfare committee. Subcutaneous (s.c.) neuroblastoma tumors consisted of either first passages of intrasplenic-induced SK-N-SH xenografts or later passages from s.c. propagation of the xenograft. […] The tumor volume doubling time was on average 5 days. The toxicity of each monoamine transporter inhibitor was assessed in 2 to 5 non-tumor-bearing nude mice by 1 h careful observation following intraperitoneal (IP) injection of the monoamine transporter inhibitor. Applied inhibitor doses were based on earlier studies (summarized in Electronic Supplementary Material: Table I) and varied from 2 to 50 mg/kg. Provided that no toxicity was observed, plasma of these animals was subsequently analyzed in the ex vivo bioassay described below. […]. First, mice were treated IP with either a monoamine transporter inhibitor or sodium chloride (control). Thirty minutes later, they received an injection in the tail vein with 1 μg MIBG spiked with 4.0–8.0 kBq [^125I]MIBG. One hour after administration of the radiopharmaceutical, the animals were bled from the carotid artery under ether anesthesia and dissected. Tumors and tissues of interest were blotted to remove adhering blood, weighted, and gamma counted. The [^125I]MIBG tissue levels were expressed as the percentage of the injected radioactivity dose per gram tissue. Mice bearing PC12 pheochromocytoma xenografts induced by direct s.c. injections of PC12 cells were used in similar uptake and inhibition experiments.
# [2] = tested on: PC12 pheochromocytoma xenografts; experiment: [125I]MIBG tumor uptake in mice bearing PC12 pheochromocytoma xenografts; assay type: in vivo; conditions: for Effect on tumor MIBG uptake in PC12 pheochromocytoma xenografts (in words): data not shown
# Method: as §1
# [3] = cited from earlier work
# [4] = tested on: tryptophan or 5-hydroxytryptophan induced symptoms; conditions: mice, assay type I, cited from earlier work
# [5] = set-up: method as in ref (3) (a number printed in a supplementary file, which may have a reference list of its own: not looked up in the article's list); conditions: mice, 24 mg/kg i.v., fifteen min after administration; ref (3); cited from earlier work
# platelet function = conditions: plasma concentrations that will inhibit SERT; cited from earlier work
# SERT [6] = target: T1, SERT (Homo sapiens, UniProt P31645); assay type: cell-based
# T1 construct: host or cells: HEK293 (ATCC CRL-3216), transient transfection
# NET = target: T2, NET (Homo sapiens, UniProt P23975); experiment: [125I]MIBG uptake and its inhibition in NET-transfected HEK293 cells (HEK-NET); assay type: cell-based
# T2 construct: host or cells: HEK293 (ATCC CRL-3216), transient transfection
# [7] = target: T3, human platelets (uptake via SERT) (Homo sapiens, UniProt P31645); experiment: [3H]serotonin uptake inhibition in isolated human platelets; assay type: cell-based; conditions: 15 min
# T3 construct: endogenous in cells; host or cells: human platelets in platelet-rich plasma from patients with polycythemia vera or secondary polycythemia
# [8] = target: T3, human platelets (uptake via SERT); experiment: [125I]MIBG uptake inhibition in isolated human platelets; assay type: cell-based
# [9] = target: T4, human SK-N-SH neuroblastoma cells (uptake via NET) (Homo sapiens, UniProt P23975); experiment: [125I]MIBG uptake inhibition in cultured SK-N-SH neuroblastoma cells; assay type: cell-based
# T4 construct: host or cells: SK-N-SH human neuroblastoma cells
# SERT [10] = conditions: cited from earlier work
# [11] = tested on: amphetamine-stimulated locomotor activity; set-up: method as in ref (8) (a number printed in a supplementary file, which may have a reference list of its own: not looked up in the article's list); conditions: mice, i.p., assay type IV; ref (8); cited from earlier work
# [12] = [125I]MIBG as substrate, HEK-SERT
# [13] = [125I]MIBG as substrate, HEK-NET
# T2 sequence (P23975 whole entry): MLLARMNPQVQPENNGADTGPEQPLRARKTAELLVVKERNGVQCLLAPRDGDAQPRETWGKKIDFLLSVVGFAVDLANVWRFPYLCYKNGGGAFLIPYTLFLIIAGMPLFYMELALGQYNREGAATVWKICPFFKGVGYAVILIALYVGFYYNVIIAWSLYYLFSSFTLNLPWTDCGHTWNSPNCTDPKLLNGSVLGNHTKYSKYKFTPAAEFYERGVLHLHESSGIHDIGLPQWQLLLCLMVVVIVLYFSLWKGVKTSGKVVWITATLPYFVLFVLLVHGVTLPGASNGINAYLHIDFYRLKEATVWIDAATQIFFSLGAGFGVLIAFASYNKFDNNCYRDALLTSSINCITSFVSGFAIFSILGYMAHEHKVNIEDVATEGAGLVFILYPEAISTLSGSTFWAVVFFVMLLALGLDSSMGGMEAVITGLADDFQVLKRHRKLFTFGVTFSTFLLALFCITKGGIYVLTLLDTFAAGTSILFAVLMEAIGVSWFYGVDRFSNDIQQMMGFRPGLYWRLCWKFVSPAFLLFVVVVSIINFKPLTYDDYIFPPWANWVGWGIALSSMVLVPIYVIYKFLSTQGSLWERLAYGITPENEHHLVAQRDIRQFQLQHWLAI
# T4 sequence (P23975 whole entry): as above
# T3 sequence (P31645 whole entry): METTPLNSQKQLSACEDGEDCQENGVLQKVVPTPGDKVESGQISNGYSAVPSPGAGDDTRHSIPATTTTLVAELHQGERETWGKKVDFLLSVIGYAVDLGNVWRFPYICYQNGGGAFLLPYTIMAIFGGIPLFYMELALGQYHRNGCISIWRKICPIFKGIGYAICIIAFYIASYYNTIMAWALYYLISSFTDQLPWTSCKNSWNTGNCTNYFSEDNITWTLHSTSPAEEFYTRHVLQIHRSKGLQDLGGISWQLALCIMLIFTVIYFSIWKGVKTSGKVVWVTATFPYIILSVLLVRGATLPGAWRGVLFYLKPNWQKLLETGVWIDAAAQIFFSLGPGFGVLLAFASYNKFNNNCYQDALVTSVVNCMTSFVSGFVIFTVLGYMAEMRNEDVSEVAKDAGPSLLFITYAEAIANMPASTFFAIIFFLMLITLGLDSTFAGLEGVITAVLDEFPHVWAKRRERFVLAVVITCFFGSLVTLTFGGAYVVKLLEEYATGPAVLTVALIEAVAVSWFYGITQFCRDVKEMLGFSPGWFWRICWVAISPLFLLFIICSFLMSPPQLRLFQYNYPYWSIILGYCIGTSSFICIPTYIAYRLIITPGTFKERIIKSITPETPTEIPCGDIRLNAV
# T1 sequence (P31645 whole entry): as above
smiles,measurement,setting,value
"CN(C)CCCC1(c2ccc(F)cc2)OCc2cc(C#N)ccc21 (centres unmarked) [Citalopram, citalopram-HBr]",Effect on [125I]MIBG accumulation in neuroblastoma xenografts (in words),[1],not significantly affected
same,Effect on tumor MIBG uptake in PC12 pheochromocytoma xenografts (in words),[2],no significant difference
same,Plasma half-life,[3]; after oral ingestion,33 to 54 h
same,Time to maximum plasma drug levels,[3]; after oral ingestion,≤ 4 h
same,Absorption after oral ingestion (in words),[3],completely absorbed
same,50 % effective dose,"[4]; i.p., ref (1)",0.9^c mg/kg
same,50 % effective dose,"[4]; oral, ref (2)",1.2^c mg/kg
same,Plasma level,[5],6 µM
same,Effect on platelet function (in words),platelet function,no effect on platelet function
"CN[C@H]1CC[C@@H](c2ccc(Cl)c(Cl)c2)c2ccccc21 [Sertraline, sertraline-HCl]",Effect on [125I]MIBG accumulation in neuroblastoma xenografts (in words),[1],not significantly affected
same,Effect on tumor MIBG uptake in PC12 pheochromocytoma xenografts (in words),[2],no significant difference
same,Fraction absorbed after oral ingestion,[3],44%
same,50 % effective dose,"[4]; i.p., ref (1)",1.5^c mg/kg
same,50 % effective dose,"[4]; oral, ref (2)",1.0^c mg/kg
"Fc1ccc([C@@H]2CCNC[C@H]2COc2ccc3c(c2)OCO3)cc1 [Paroxetine, paroxetine-HCl]",Effect on [125I]MIBG accumulation in neuroblastoma xenografts (in words),[1],no effect; also recorded: not significantly affected
same,Bioavailability,[3]; extensive first-pass metabolism,approximately 50%
same,50 % effective dose,"[4]; i.p., ref (1)",0.2^c mg/kg
"COCCCC/C(=N\OCCN)c1ccc(C(F)(F)F)cc1 [Fluvoxamine, fluvoxamine-maleate]",Inhibition of [125I]MIBG uptake in HEK-SERT cells (in words),"SERT [6]; 1 h, substrate 10^−6 M",potently inhibited
same,Inhibition of [125I]MIBG uptake in HEK-NET cells (in words),"NET; 1 h, substrate 10^−6 M",no significant inhibitory effect at low concentrations
same,Inhibition of [3H]serotonin uptake in human platelets (in words),[7]; co-incubation,"effective, inhibitor concentration-dependent inhibition"
same,Inhibition of [125I]MIBG uptake in human platelets (in words),"[8]; co-incubation, 4 h","effective, inhibitor concentration-dependent inhibition"
same,Effect on [125I]MIBG accumulation in neuroblastoma xenografts (in words),[1],no effect; also recorded: not significantly affected
same,Reduction of pheochromocytoma-associated radioactivity,"[2]; PC12 xenografts, p < 0.002",64%
same,50 % effective dose,"[4]; oral, ref (2)",13^c mg/kg
"CN(C)CCCN1c2ccccc2CCc2ccccc21 [Imipramine, imipramine-HCl]",Inhibition of [125I]MIBG uptake in human platelets (in words),[8],able to inhibit
same,Effect on MIBG uptake in neuroblastoma cells (in words),[9],profound inhibitory effect
"CNCCC(Oc1ccc(C(F)(F)F)cc1)c1ccccc1 (centres unmarked) [Fluoxetine, fluoxetine-HCl]",Elimination half-life,[3],24 to 96 h
"CC(N)C(=O)OC(C)(C)Cc1ccc(Cl)cc1 (centres unmarked) [Alaproclate, alaproclate-HCl]",IC50,"[7]; 10^−8 M substrate, 37 °C",516 nM
same,IC50,"[8]; 10^−8 M substrate, 37 °C, 4 h",38 nM
same,IC50,[9],43400 nM
same,"Selectivity factor, IC50 ratio",[9],1158
"NCCC(Oc1ccc(C(F)(F)F)cc1)c1ccccc1 (centres unmarked) [Norfluoxetine, norfluoxetine-HCl]",IC50,"[9]; 10^−8 M substrate, 37 °C, 4 h, read-out: IC50 of uptake inhibition, SK-N-SH, [125I]MIBG",2760 nM
same,Elimination half-life,[3],170 to 360 h
"N=C(N)NCc1cccc(I)c1 [MIBG, meta-iodobenzylguanidine]",Km,"SERT [6]; [125I]MIBG as substrate, HEK-SERT, 1 h incubation",9.7 µM
same,Km,"NET; [125I]MIBG as substrate, HEK-NET, 1 h incubation",0.49 µM
"N=C(N)NCc1cccc([131I])c1 [MIBG, meta-iodobenzylguanidine]","Nonspecific uptake, share of total uptake","SERT [6]; SERT-transfected cells, substrate concentration 10^−5 M",22%
same,Catalytic efficiency (ratio Vmax/Km),SERT [6]; [12],0.0077
same,Vmax,SERT [6]; [12],0.074 μmol/mg protein/min
same,"Nonspecific uptake, share of total uptake","NET; NET-transfected cells, substrate concentration 10^−5 M",33%
same,Catalytic efficiency (ratio Vmax/Km),NET; [13],0.045
same,Vmax,NET; [13],0.022 μmol/mg protein/min
same,Total uptake (percentage of added radioactivity),"[8]; control platelet samples without SSRIs, MIBG, n = 17",23.6 ± 3.6%
same,Nonspecific uptake (percentage of controls),"[8]; platelets, MIBG",12.3 ± 2.5%
CNCCCC1(c2ccc(F)cc2)OCc2cc(C#N)ccc21 (centres unmarked) [desmethylcitalopram],Potency and selectivity in inhibiting SERT in vitro compared with citalopram (in words),SERT [10],only slightly less potent and selective than citalopram
"CNCCCN1c2ccccc2CCc2ccccc21 [Desipramine, desipramine-HCl]",Decrease of [125I]MIBG accumulation in neuroblastoma xenografts,[1]; 20 mg/kg IP 30 min before [125I]MIBG,60%
same,Effect on [125I]MIBG accumulation in neuroblastoma xenografts (in words),[1],profoundly decreased
same,Effect on tumor MIBG uptake in PC12 pheochromocytoma xenografts (in words),[2],same reduction of MIBG uptake as seen in SK-N-SH neuroblastoma xenografts
same,50 % effective dose,"[4]; i.p., ref (1)",>39^c mg/kg
same,50 % effective dose,"[4]; oral, ref (2, 4, 7)",20 – 320^c mg/kg
same,Reported effective dose (cell not marked as 50 % effective dose),[11],5 to 36 mg/kg
